Source: patent publication US20250215010A1, “DIAZABICYCLOOCTANE DERIVATIVES USEFUL AS MATRIX METALLOPROTEINASE INHIBITORS” (VASA THERAPEUTICS SPOLKA Z OGRANICZONA ODPOWIEDZIALNOSCIA, priority 2022, published 2025)
pIC50: −log10 of the molar value. Read-outs that look alike come from different tables or passages of the source.

What was measured:
Format in all cases: biochemical
[1] = target: T1, MMP2 (Homo sapiens, UniProt P08253); experiment: MMP-2 colorimetric inhibition assay (Enzo kit BML-AK408)
T1 sequence (P08253 110-660): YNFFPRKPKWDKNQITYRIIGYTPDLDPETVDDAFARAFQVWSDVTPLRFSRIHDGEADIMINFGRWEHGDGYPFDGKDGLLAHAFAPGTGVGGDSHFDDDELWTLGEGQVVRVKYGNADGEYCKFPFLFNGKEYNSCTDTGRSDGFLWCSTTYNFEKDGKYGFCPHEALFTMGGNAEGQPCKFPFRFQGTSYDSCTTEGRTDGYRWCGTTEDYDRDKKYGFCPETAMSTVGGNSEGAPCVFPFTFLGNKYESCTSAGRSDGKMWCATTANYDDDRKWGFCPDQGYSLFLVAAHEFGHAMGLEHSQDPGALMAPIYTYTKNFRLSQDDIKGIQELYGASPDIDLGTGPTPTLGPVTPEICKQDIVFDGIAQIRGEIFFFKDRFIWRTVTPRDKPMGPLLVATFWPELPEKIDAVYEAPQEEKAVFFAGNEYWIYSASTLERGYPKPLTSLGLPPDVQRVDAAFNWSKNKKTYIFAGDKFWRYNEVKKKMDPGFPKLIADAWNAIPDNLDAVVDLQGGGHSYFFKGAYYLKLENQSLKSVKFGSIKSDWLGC
Protocol: (§1) The inhibitory activities of the compounds of the invention were assessed in 96-well microplate format using MMP1, MMP2, MMP9 and MMP13 colorimetric assay kits and TACE fluorometric assay kit from Enzo Life Sciences, Inc. The inhibitory effect of the compounds of the invention on ADAM10 activity were evaluated in 96-well microplate format using fluorometric assay from AnaSpec, Inc.
(§2) The MMP-2 Colorimetric Drug Discovery Kit (catalog #BML-AK408) is a complete assay system designed to screen MMP-2 inhibitors using a thiopeptide as a chromogenic substrate (Ac-PLG-[2-mercapto-4-methylpentanoyl]-LG-OC2H5). The MMP cleavage site peptide bond is replaced by a thioester bond in the thiopeptide. Hydrolysis of this bond by an MMP produces a sulfhydryl group, which reacts with DTNB [5,5′-dithiobis(2-nitrobenzoic acid), Ellman's reagent] to form 2-nitro-5-thiobenzoic acid, that can be detected spectrophotometrically.
(§3) The inhibitory activities of the compounds of the invention against MMP1, MMP2, MMP9 and MMP13 were tested according to the manufacturer's assay protocols and the absorbance at 415 nm was monitored using the Tecan Infinite® 200 Pro F Nano^+ microplate reader.
(§4) The normalized values were analyzed using GraphPadPrism 9 for Windows (GraphPad Software, San Diego, CA, USA) software by plotting inhibition curves and determining the IC50 values (in nM).

[2] = target: ADAM17 (TACE) (Homo sapiens, UniProt P78536); experiment: TACE fluorometric inhibition assay (Enzo kit BML-AK310)
ADAM17 (TACE), sequence (P78536 215-477 limits assumed): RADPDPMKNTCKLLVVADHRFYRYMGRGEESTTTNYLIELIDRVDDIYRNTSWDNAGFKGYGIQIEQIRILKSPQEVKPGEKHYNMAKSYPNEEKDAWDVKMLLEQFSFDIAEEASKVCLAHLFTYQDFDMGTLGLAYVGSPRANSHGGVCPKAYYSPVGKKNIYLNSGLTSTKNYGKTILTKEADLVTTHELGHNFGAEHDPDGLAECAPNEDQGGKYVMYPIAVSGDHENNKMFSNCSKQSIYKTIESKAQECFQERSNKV
Protocol: as §1
The TACE Fluorometric Drug Discovery Kit (catalog #BML-AK310) is a complete assay system designed to screen ADAM17 (TACE) inhibitors using a quenched fluorogenic peptide: Mca-PLAQAV-Dpa-RSSSR—NH2. Mca fluorescence is quenched by the Dpa group until cleavage by proteases separates the two moieties leading to an increase in Mca fluorescence.
The inhibitory activity of the compounds of the invention against TACE was tested according to the manufacturer's assay protocol and the fluorescence was monitored at excitation/emission wavelengths=320 nm/420 nm using Tecan Infinite® 200 Pro F Nano^+ microplate reader.
as §4

[3] = target: T2, MMP13 (Homo sapiens, UniProt P45452); experiment: MMP-13 colorimetric inhibition assay (Enzo kit BML-AK412)
T2 construct: purchased Enzo Life Sciences, Inc. BML-AK412
Protocol: as §1
as §2, with “MMP-13” for “MMP-2”, “#BML-AK412)” for “#BML-AK408)”, “screen” for “screen MMP-2”, “inhibitors of matrix metalloproteinase-13” for “inhibitors”
as §3, §4

[4] = target: MMP9 (Homo sapiens, UniProt P14780); experiment: MMP-9 colorimetric inhibition assay (Enzo kit BML-AK410)
MMP9, sequence (P14780 94-707): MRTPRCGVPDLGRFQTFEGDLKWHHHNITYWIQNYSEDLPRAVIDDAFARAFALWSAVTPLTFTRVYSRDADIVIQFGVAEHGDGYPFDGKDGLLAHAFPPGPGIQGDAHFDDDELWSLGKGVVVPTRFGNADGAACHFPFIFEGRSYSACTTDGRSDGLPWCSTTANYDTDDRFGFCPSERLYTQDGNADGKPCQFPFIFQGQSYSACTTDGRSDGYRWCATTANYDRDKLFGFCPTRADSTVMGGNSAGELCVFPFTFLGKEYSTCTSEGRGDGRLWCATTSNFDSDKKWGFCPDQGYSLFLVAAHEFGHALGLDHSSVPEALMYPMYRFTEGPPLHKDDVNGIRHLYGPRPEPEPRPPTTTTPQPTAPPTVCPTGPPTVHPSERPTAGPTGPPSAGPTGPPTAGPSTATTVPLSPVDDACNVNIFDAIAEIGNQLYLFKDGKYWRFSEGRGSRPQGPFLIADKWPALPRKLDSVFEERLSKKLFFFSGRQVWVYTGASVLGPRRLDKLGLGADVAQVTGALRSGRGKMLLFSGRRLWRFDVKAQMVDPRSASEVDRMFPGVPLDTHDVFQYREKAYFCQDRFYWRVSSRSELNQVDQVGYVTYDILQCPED
Protocol: as §1
as §2, with “MMP-9” for “MMP-2”, “#BML-AK410)” for “#BML-AK408)”, “screen” for “screen MMP-2”, “inhibitors of matrix metalloproteinase-9” for “inhibitors”
as §3, §4

[5] = target: T3, MMP1 (Homo sapiens, UniProt P03956); experiment: MMP-1 colorimetric inhibition assay (Enzo kit BML-AK404)
T3 sequence (P03956 100-269 limits assumed): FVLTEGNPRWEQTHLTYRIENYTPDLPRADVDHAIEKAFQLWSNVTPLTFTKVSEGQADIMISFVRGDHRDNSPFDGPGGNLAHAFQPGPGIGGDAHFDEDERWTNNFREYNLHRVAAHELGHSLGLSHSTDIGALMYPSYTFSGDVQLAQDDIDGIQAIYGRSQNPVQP
Protocol: as §1
as §2, with “MMP-1” for “MMP-2”, “#BML-AK404)” for “#BML-AK408)”, “screen” for “screen MMP-2”, “inhibitors of matrix metalloproteinase-1” for “inhibitors”
as §3, §4

[6] = thiopeptide substrate, absorbance 415 nm, read-out: MMP 2 IC50 class
[7] = quenched fluorogenic peptide, ex/em 320/420 nm, read-out: TACE IC50 class
[8] = thiopeptide substrate, absorbance 415 nm, read-out: MMP 13 IC50 class
[9] = thiopeptide substrate, absorbance 415 nm, read-out: MMP 9 IC50 class
[10] = thiopeptide substrate, absorbance 415 nm, read-out: MMP 1 IC50 class

COCCOC(=O)N1[C@@H]2CC[C@H]1[C@H](C(=O)NO)N(S(=O)(=O)c1ccc(Oc3cncc(F)c3)nc1)C2 [Example 23, 2-methoxyethyl (1S,2R,5R)-3-((6-((5-fluoropyridin-3-yl)oxy)pyridin-3-yl)-sulfonyl)-2-(hydroxycarbamoyl)-3,8-diaza-bicyclo[3.2.1]octane-8-carboxylate]
pIC50 [1, 6]: > 7.30
pIC50 [2, 7]: 5.00 to 6.00
pIC50 [3, 8]: 6.00 to 7.30
pIC50 [4, 9]: 6.00 to 7.30
pIC50 [5, 10]: 6.00 to 7.30

CCn1cc(Oc2ccc(S(=O)(=O)N3C[C@H]4CC[C@@H]([C@@H]3C(=O)NO)N4C(=O)OCCOC)cn2)cn1 [Example 35, 2-methoxyethyl (1S,2R,5R)-3-((6-((1-ethyl-1H-pyrazol-4-yl)-oxy)pyridin-3-yl)-sulfonyl)-2-(hydroxycarbamoyl)-3,8-diaza-bicyclo[3.2.1]octane-8-carboxylate]
pIC50 [1, 6]: > 7.30
pIC50 [2, 7]: 6.00 to 7.30
pIC50 [3, 8]: > 7.30
pIC50 [4, 9]: > 7.30
pIC50 [5, 10]: 6.00 to 7.30

O=C(NO)[C@H]1[C@@H]2CC[C@H](CN1S(=O)(=O)c1ccc(Oc3ccc(F)cc3)nc1)N2CC(=O)N1CCCC1 [Example 52, (1S,2R,5R)-3-((6-(4-fluorophenoxy)pyridin-3-yl)sulfonyl)-N-hydroxy-8-(2-oxo-2-(pyrrolidin-1-yl)ethyl)-3,8-diazabicyclo[3.2.1]octane-2-carboxamide]
pIC50 [1, 6]: > 7.30
pIC50 [2, 7]: < 5.00
pIC50 [3, 8]: > 7.30
pIC50 [4, 9]: 6.00 to 7.30
pIC50 [5, 10]: 5.00 to 6.00

CC(C)Oc1ccc(Oc2ccc(S(=O)(=O)N3C[C@H]4CC[C@@H]([C@@H]3C(=O)NO)N4C(=O)N3CCOCC3)cn2)cc1 [Example 71, (1S,2R,5R)-N-hydroxy-3-((6-(4-isopropoxyphenoxy)-pyridin-3-yl)sulfonyl)-8-(morpholine-4-carbonyl)-3,8-diazabicyclo[3.2.1]-octane-2-carboxamide]
pIC50 [1, 6]: > 7.30
pIC50 [2, 7]: < 5.00
pIC50 [3, 8]: > 7.30
pIC50 [4, 9]: 6.00 to 7.30
pIC50 [5, 10]: 5.00 to 6.00

CCN1CCC(Oc2ccc(S(=O)(=O)N3C[C@H]4CC[C@@H]([C@@H]3C(=O)NO)N4C(=O)OCCOC)cn2)CC1 [Example 74, 2-methoxyethyl (1S,2R,5R)-3-((6-((1-ethylpiperidin-4-yl)oxy)pyridin-3-yl)sulfonyl)-2-(hydroxycarbamoyl)-3,8-diazabicyclo[3.2.1]octane-8-carboxylate]
pIC50 [1, 6]: < 5.00
pIC50 [2, 7]: < 5.00
pIC50 [3, 8]: < 5.00
pIC50 [4, 9]: 5.00 to 6.00
pIC50 [5, 10]: < 5.00

COCCOC(=O)N1[C@@H]2CC[C@H]1[C@H](C(=O)NO)N(S(=O)(=O)N1CCC(Oc3ccnc(C(F)(F)F)c3)CC1)C2 [Example 49, 2-methoxyethyl (1S,2R,5R)-2-(hydroxy-carbamoyl)-3-((4-((2-(trifluoro-methyl)pyridin-4-yl)oxy)-piperidin-1-yl)-sulfonyl)-3,8-diazabicyclo-[3.2.1]octane-8-carboxylate]
pIC50 [1, 6]: 6.00 to 7.30
pIC50 [2, 7]: 5.00 to 6.00
pIC50 [3, 8]: 6.00 to 7.30
pIC50 [4, 9]: 6.00 to 7.30
pIC50 [5, 10]: < 5.00

COCCOC(=O)N1[C@@H]2CC[C@H]1[C@H](C(=O)NO)N(S(=O)(=O)N1CCN(Cc3ccc(Cl)cc3)CC1)C2 [Example 76, 2-methoxyethyl (1S,2R,5R)-3-((4-(4-chlorobenzyl)piperazin-1-yl)sulfonyl)-2-(hydroxycarbamoyl)-3,8-diazabicyclo[3.2.1]octane-8-carboxylate]
pIC50 [1, 6]: 6.00 to 7.30
pIC50 [2, 7]: 5.00 to 6.00
pIC50 [3, 8]: 6.00 to 7.30
pIC50 [4, 9]: 6.00 to 7.30
pIC50 [5, 10]: < 5.00

CN(C)C(=O)CN1[C@@H]2CC[C@H]1[C@H](C(=O)NO)N(S(=O)(=O)c1ccc(Oc3ccc(F)cc3)nc1)C2 [Example 51, (1S,2R,5R)-8-(2-(dimethylamino)-2-oxoethyl)-3-((6-(4-fluorophenoxy)pyridin-3-yl)sulfonyl)-N-hydroxy-3,8-diazabicyclo[3.2.1]octane-2-carboxamide]
pIC50 [1, 6]: > 7.30
pIC50 [2, 7]: < 5.00
pIC50 [3, 8]: > 7.30
pIC50 [4, 9]: 6.00 to 7.30
pIC50 [5, 10]: 5.00 to 6.00

CC(=O)N1[C@@H]2CC[C@H]1[C@H](C(=O)NO)N(S(=O)(=O)N1CCC(Oc3ccnc(C(F)(F)F)c3)CC1)C2 [Example 64, (1S,2R,5R)-8-acetyl-N-hydroxy-3-((4-((2-(trifluoromethyl)-pyridin-4-yl)oxy)-piperidin-1-yl)-sulfonyl)-3,8-diazabicyclo[3.2.1]-octane-2-carboxamide]
pIC50 [1, 6]: 6.00 to 7.30
pIC50 [2, 7]: 5.00 to 6.00
pIC50 [3, 8]: 6.00 to 7.30
pIC50 [4, 9]: 6.00 to 7.30
pIC50 [5, 10]: 5.00 to 6.00

COCCOC(=O)N1[C@@H]2CC[C@H]1[C@H](C(=O)NO)N(S(=O)(=O)c1ccc(OC3CCC(OC)CC3)nc1)C2 (stereo partly drawn) [Example 11, 2-methoxyethyl (1S,2R,5R)-2-(hydroxycarbamoyl)-3-((6-((4-methoxy-cyclohexyl)oxy)-pyridin-3-yl)-sulfonyl)-3,8-diaza-bicyclo[3.2.1]octane-8-carboxylate]
pIC50 [1]: > 7.30
pIC50 [2]: 5.00 to 6.00
pIC50 [3]: 6.00 to 7.30
pIC50 [4]: > 7.30
pIC50 [5]: 5.00 to 6.00

CCOC(=O)N1[C@@H]2CC[C@H]1[C@H](C(=O)NO)N(S(=O)(=O)N1CCC(Oc3ccnc(C(F)(F)F)c3)CC1)C2 [Example 50, ethyl (1S,2R,5R)-2-(hydroxy-carbamoyl)-3-((4-((2-(trifluoro-methyl)pyridin-4-yl)oxy)-piperidin-1-yl)-sulfonyl)-3,8-diazabicyclo-[3.2.1]octane-8-carboxylate]
pIC50 [1, 6]: 6.00 to 7.30
pIC50 [2, 7]: 5.00 to 6.00
pIC50 [3, 8]: 6.00 to 7.30
pIC50 [4, 9]: 6.00 to 7.30
pIC50 [5, 10]: < 5.00

COCCOC(=O)N1[C@@H]2CC[C@H]1[C@H](C(=O)NO)N(S(=O)(=O)c1cnc(Oc3ccc(F)cc3)c(F)c1)C2 [Example 6, 2-methoxyethyl (1S,2R,5R)-3-((5-fluoro-6-(4-fluoro-phenoxy)pyridin-3-yl)sulfonyl)-2-(hydroxycarbamoyl)-3,8-diazabicyclo[3.2.1]-octane-8-carboxylate]
pIC50 [1, 6]: > 7.30
pIC50 [2, 7]: 5.00 to 6.00
pIC50 [3, 8]: > 7.30
pIC50 [4, 9]: > 7.30
pIC50 [5, 10]: 5.00 to 6.00
